Data: patent US11104700B2, “Oligonucleotides” (OXFORD UNIVERSITY INNOVATION LIMITED, priority 2017, dated 2021)
Like-named read-outs stand apart in the source and are kept apart here. In the oligonucleotide strings, read from the 5' end, every base follows the letter of its sugar. An asterisk marks phosphorothioate; unmarked linkages are phosphodiester. Other units and linkages are bracketed, terminal groups are in braces. A string of capitals states the bases alone. [tz] = triazole internucleoside linkage replacing phosphodiester; l = locked nucleic acid (LNA); [5mC] = 5-methylcytosine; d = 2'-deoxy (DNA)

Columns and labels:
[1] = system: RNA target; 5′-rGCU AGA GAA GUC G (SEQ ID NO: 38); assay: UV thermal melting, two triazole linkages (MeC-T steps), RNA target; type: binding; settings: for Tm, RNA target / ΔTm/mod, RNA target: Table 6; for Tm, RNA target: 10 mM phosphate, 200 mM NaCl, pH 7.0, 3.0 μM each strand; for ΔTm/mod, RNA target: relative to unmodified ON7
[2] = system: DNA target; 5′-dGCT AGA GAA GTC G (SEQ ID NO: 37); assay: UV thermal melting, two triazole linkages (MeC-T steps), DNA target; type: binding; settings: Table 6; for Tm, DNA target: 10 mM phosphate, 200 mM NaCl, pH 7.0, 3.0 μM each strand; for ΔTm/mod, DNA target: relative to unmodified ON7
[3] = system: RNA target 5′-rGCU GCA GGC GUC G (SEQ ID NO: 24); type: binding; settings: for Tm, RNA target: pH 7
[4] = system: DNA target 5′-dGCT GCA GGC GTC G (SEQ ID NO: 23); type: binding; settings: for Tm, DNA target: pH 7
[5] = system: RNA Target 3′-rGCUGCGMACGUCG (M = G, C, U); assay: Mismatch discrimination against RNA targets containing a mismatch nucleotide (UV melting); type: binding
[6] = system: RNA target: 5′-rGCU GCA AGC GUC G (SEQ ID NO: 34); assay: UV thermal melting, single triazole linkage (MeC-T step), RNA target; type: binding
[7] = system: DNA target: 5′-dGCT GCA AGC GTC G (SEQ ID NO: 33); assay: UV thermal melting, single triazole linkage (MeC-T step), DNA target; type: binding
[8] = system: DNA target: 5′-dGCT GGA GAG GTC G (SEQ ID NO: 39); type: binding; settings: for Tm, DNA target: pH 7
[9] = system: Phosphodiesterase 1 from Crotalus adamanteus venom
[10] = change in Tm relative to the fully matched duplex (M = A)
[11] = Table 3, fully matched duplex (M = A)
[12] = Table 5, 10 mM phosphate, 200 mM NaCl, pH 7.0, 3.0 μM each strand

CGA^MeCTTCT^MeCTAGC (DNA dCdGdAd[5mC]dTdTdCdTd[5mC]dTdAdGdC) [ON7]
Tm, RNA target [1]: 58.8 °C
Tm, DNA target [2]: 57.1 °C

5′-dCGACG^MeCt^MeC^LTGCAGC [ON11]
ΔTm, RNA target (relative to the unmodified duplex ON33) [3]: -0.5
Tm, RNA target [3]: 68.6 °C
ΔTm, DNA target (relative to the unmodified duplex ON33) [4]: -5.1
Tm, DNA target [4]: 63.5 °C

5′-dCGACG^MeCtTTGCAGC (DNA dCdGdAdCdGd[5mC][tz]dTdTdGdCdAdGdC; further chemistry not given here) [ON3]
ΔTm, mismatch M = C [5, 10]: -16.1 °C
ΔTm, mismatch M = G [5, 10]: -2.2 °C
ΔTm, mismatch M = U [5, 10]: -12.9 °C
Tm, RNA target M = A [6, 11]: 56.6 °C
Tm, RNA target [6, 12]: 56.6 °C
ΔTm, RNA target (change in Tm relative to the unmodified duplex) ([6]; Table 5, relative to ON1): -6.2 °C
Tm, DNA target [7, 12]: 55.3 °C
ΔTm, DNA target (change in Tm relative to the unmodified duplex) ([7]; Table 5, relative to ON1): -8.9 °C

CGA^MeCT^LTCT^MeCT^LAGC (DNA dCdGdAd[5mC]lTdTdCdTd[5mC]lTdAdGdC) [ON10]
Tm, RNA target [1]: 70.0 °C
ΔTm/mod, RNA target [1]: +5.6 °C/modification
Tm, DNA target [2]: 62.2 °C
ΔTm/mod, DNA target [2]: +2.5 °C/modification

5′-d CGACG^MeCp^MeC^LTGCAGC [ON34]
ΔTm, RNA target (relative to the unmodified duplex ON33) [3]: +5.6
Tm, RNA target [3]: 74.7 °C
ΔTm, DNA target (relative to the unmodified duplex ON33) [4]: +3.3
Tm, DNA target [4]: 72 °C

5′-dCGA^MeCt^MeCTCT^MeCt^MeCAGC [ON14]
ΔTm/mod, DNA target [8]: -7.3
Tm, DNA target [8]: 51.9 °C

5′-dCGA^MeCtT^LTCT^MeCtT^LAGC (DNA dCdGdAd[5mC][tz]lTdTdCdTd[5mC][tz]lTdAdGdC; further chemistry not given here) [ON8]
increase in Tm per modification relative to two triazole linkages without 3′-LNA ([1]; ON8 compared with ON9, RNA target): 5.0 °C/modification
drop in Tm per modification compared to unmodified ON7 ([1]; RNA target): 0.8 °C/modification
Tm, RNA target [1]: 57.1 °C
ΔTm/mod, RNA target [1]: -0.8 °C/modification
Tm, DNA target [2]: 48.0 °C
ΔTm/mod, DNA target [2]: -4.5 °C/modification

CGACG^MeCT^LTGCAGC [ON4]
ΔTm, mismatch M = C [5]: -15.2
ΔTm, mismatch M = G [5]: -4.8
ΔTm, mismatch M = U [5]: -13.7
Tm, RNA target M = A [6]: 68.9 °C
ΔTm, RNA target (change in Tm relative to the unmodified duplex) [6]: 6.1
Tm, RNA target ([6]; pH 7): 68.9 °C
ΔTm, DNA target (change in Tm relative to the unmodified duplex) [7]: 3.3
Tm, DNA target ([7]; pH 7): 67.5 °C

5′-dCGA^MeCp^MeCTCT^MeCp^MeCAGC [ON35]
Tm, DNA target [8]: 66.6 °C

5′-dCGA^MeCtTTCT^MeCtTAGC (DNA dCdGdAd[5mC][tz]dTdTdCdTd[5mC][tz]dTdAdGdC; further chemistry not given here) [ON9]
Tm, RNA target [1]: 47.1 °C
ΔTm/mod, RNA target [1]: -5.8 °C/modification
Tm, DNA target [2]: 42.3 °C
ΔTm/mod, DNA target [2]: -7.4 °C/modification

5′-dCGACG^MeCtT^LTGCAGC [ON2]
ΔTm, mismatch M = C [5]: -15.6
ΔTm, mismatch M = G [5]: -3.3
ΔTm, mismatch M = U [5]: -13.4
Tm, RNA target M = A [6]: 62 °C
increase in Tm relative to the duplex with only the triazole linkage [6]: 5.4
ΔTm, RNA target (change in Tm relative to the unmodified duplex) [6]: −0.8
Tm, RNA target ([6]; pH 7): 62 °C
increase in thermal stability compared to the duplex containing only the triazole linkage [7]: 2.9
ΔTm, DNA target (change in Tm relative to the unmodified duplex) [7]: −6.0
Tm, DNA target ([7]; pH 7): 58.2 °C

5′-dCGA^MeCt^MeC^LTCT^MeCt^MeC^LAGC [ON13]
ΔTm/mod, DNA target [8]: -5.1
Tm, DNA target [8]: 56.4 °C

5′-dCGACG^MeC^LtTTGCAGC (DNA dCdGdAdCdGl[5mC][tz]dTdTdGdCdAdGdC; further chemistry not given here) [ON5]
additional stabilising effect of LNA on the 5′-side of the triazole ([6]; DNA:RNA hybrids or DNA duplexes): no significant additional stabilising effect
Tm, RNA target [6, 12]: 55.5 °C
ΔTm, RNA target (change in Tm relative to the unmodified duplex) ([6]; Table 5, relative to ON1): -7.2 °C
Tm, DNA target [7, 12]: 52.7 °C
ΔTm, DNA target (change in Tm relative to the unmodified duplex) ([7]; Table 5, relative to ON1): -11.5 °C

CGACG^MeCTTGCAGC (DNA CGACGCTTGCAGC; DNA, [5mC] at 6, backbone not given here) [ON1]
ΔTm, mismatch M = C [5, 10]: -16.3 °C
ΔTm, mismatch M = G [5, 10]: -3.9 °C
ΔTm, mismatch M = U [5, 10]: -13.7 °C
Tm, RNA target M = A [6, 11]: 62.8 °C
Tm, RNA target [6, 12]: 62.8 °C
time to full digestion by 3′-exonuclease (gel) [9]: ≤ 5 min
Tm, DNA target [7, 12]: 64.2 °C

5′-dCGACG^MeCt^MeCTGCAGC [ON12]
ΔTm, RNA target (relative to the unmodified duplex ON33) [3]: -5.8
Tm, RNA target [3]: 63.4 °C
ΔTm, DNA target (relative to the unmodified duplex ON33) [4]: -6.4
Tm, DNA target [4]: 62 °C

5′-d CGACG^MeCp^MeCTGCAGC [ON33]
Tm, RNA target [3]: 69.1 °C
Tm, DNA target [4]: 68.7 °C

5′-dCGACG^MeC^LtT^LTGCAGC [ON6]
additional stabilising effect of LNA on the 5′-side of the triazole [6]: no significant additional stabilising effect
ΔTm, RNA target (change in Tm relative to the unmodified duplex) [6]: +0.1
Tm, RNA target ([6]; pH 7): 62.9 °C
ΔTm, DNA target (change in Tm relative to the unmodified duplex) [7]: -5.8
Tm, DNA target ([7]; pH 7): 58.4 °C

5′-dCGA^MeCp^MeC^LTCT^MeCp^MeC^LAGC [ON36]
ΔTm/mod, DNA target [8]: +2.8
Tm, DNA target [8]: 72.2 °C
